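A five-concentration, 48-hour dose response in 96-well plates underlies each endpoint, interpolated linearly between surrounding concentrations. GI50: concentration for 50% inhibition of growth.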 The source made the active and inactive calls. Rule as the data show it: active = GI50 up to about 1.1 µM and inactive = higher. Where a SMILES comes first, the peptide text is derived from it. The star is where a group is joined. Boc = CC(C)(C)OC(=O)*; OBn = c1ccc(CO*)cc1
Tests used:
Experiment in all cases: growth of human tumour cells (NCI), 48 h
OVCAR-5 = system: OVCAR-5
U-251 = system: U-251
HCT-116 = system: HCT-116
CAKI-1 = system: CAKI-1
786-0 = system: 786-0
SN12C = system: SN12C
IGROV-1 = system: IGROV-1
ACHN = system: ACHN
RPMI-8226 = system: RPMI-8226
SK-MEL-28 = system: SK-MEL-28
MDA-N = system: MDA-N
HOP-62 = system: HOP-62
LOX IMVI = system: LOX IMVI
K562 = system: K562
CCRF-CEM = system: CCRF-CEM
SF-539 = system: SF-539
HL-60 = system: HL-60
OVCAR-3 = system: OVCAR-3
HOP-92 = system: HOP-92

Measured: GI50

c1c[nH]c(-c2cccc3nsnc23)c1
inactive: OVCAR-5 31.8 µM | U-251 > 100 µM | HCT-116 59.7 µM | CAKI-1 43.5 µM | 786-0 > 100 µM | SN12C 94.2 µM | IGROV-1 22.8 µM | ACHN 71.9 µM | RPMI-8226 57.7 µM | SK-MEL-28 > 100 µM | MDA-N > 100 µM | HOP-62 30.7 µM | LOX IMVI 63.1 µM | K562 > 100 µM | CCRF-CEM 93.1 µM | SF-539 > 100 µM

N#C/C(=C/NC(N)=S)C(N)=O
inactive: OVCAR-5 > 100 µM | U-251 > 100 µM | HCT-116 > 100 µM | CAKI-1 > 100 µM | 786-0 > 100 µM | HL-60 > 100 µM | SN12C > 100 µM | OVCAR-3 > 100 µM | IGROV-1 > 100 µM | ACHN > 100 µM | SK-MEL-28 > 100 µM | MDA-N > 100 µM | HOP-62 > 100 µM | LOX IMVI > 100 µM | HOP-92 > 100 µM | SF-539 > 100 µM

CC(C(N)=O)N(C)C(=O)c1cnc2ccccc2c1 (stereo not drawn)
inactive: OVCAR-5 > 100 µM | U-251 > 100 µM | HCT-116 > 100 µM | CAKI-1 > 100 µM | 786-0 > 100 µM | HL-60 > 100 µM | SN12C > 100 µM | OVCAR-3 > 100 µM | IGROV-1 > 100 µM | ACHN > 100 µM | RPMI-8226 > 100 µM | SK-MEL-28 > 100 µM | MDA-N > 100 µM | K562 17 µM | CCRF-CEM > 100 µM | HOP-92 > 100 µM | SF-539 > 100 µM

CC(N)Cc1cccc(C(F)(F)F)c1 (stereo not drawn)
inactive: OVCAR-5 > 100 µM | U-251 > 100 µM | HCT-116 > 100 µM | CAKI-1 > 100 µM | 786-0 > 100 µM | HL-60 > 100 µM | SN12C > 100 µM | OVCAR-3 > 100 µM | IGROV-1 > 100 µM | ACHN > 100 µM | RPMI-8226 > 100 µM | SK-MEL-28 > 100 µM | HOP-62 > 100 µM | LOX IMVI > 100 µM | K562 > 100 µM | CCRF-CEM > 100 µM | HOP-92 > 100 µM | SF-539 > 100 µM

CC1(C)C2CCC(N)(C2)C1O (stereo not drawn)
inactive: OVCAR-5 > 100 µM | U-251 > 100 µM | HCT-116 > 100 µM | CAKI-1 > 100 µM | 786-0 > 100 µM | HL-60 > 10 µM | SN12C > 100 µM | OVCAR-3 > 100 µM | IGROV-1 > 100 µM | ACHN > 100 µM | RPMI-8226 > 100 µM | SK-MEL-28 > 100 µM | MDA-N > 100 µM | HOP-62 > 100 µM | LOX IMVI > 100 µM | K562 > 100 µM | CCRF-CEM > 100 µM | HOP-92 > 100 µM

CC(C)CC(NC(=O)C(C)(CI)Cc1ccccc1)C(=O)Nc1ccccc1 (stereo not drawn)
inactive: OVCAR-5 > 100 µM | U-251 > 100 µM | HCT-116 31 µM | CAKI-1 > 100 µM | 786-0 > 100 µM | HL-60 33.2 µM | SN12C > 100 µM | OVCAR-3 > 100 µM | IGROV-1 > 100 µM | ACHN > 100 µM | RPMI-8226 > 100 µM | MDA-N > 100 µM | LOX IMVI > 100 µM | K562 > 100 µM | CCRF-CEM > 100 µM | HOP-92 > 100 µM | SF-539 > 100 µM

N#CC12C3C4CC5C6C4C1C6C(O)(C53)N2Cc1ccccc1 (stereo not drawn)
inactive: OVCAR-5 > 100 µM | U-251 > 100 µM | HCT-116 > 100 µM | CAKI-1 > 100 µM | 786-0 > 100 µM | HL-60 > 100 µM | SN12C > 100 µM | OVCAR-3 > 100 µM | IGROV-1 > 100 µM | ACHN > 100 µM | RPMI-8226 > 100 µM | SK-MEL-28 > 100 µM | HOP-62 > 100 µM | LOX IMVI > 100 µM | K562 > 100 µM | CCRF-CEM > 100 µM | HOP-92 > 100 µM | SF-539 > 100 µM

CC(C)CC(=O)NC(C(=O)NC(C(=O)NC(CC(C)C)C(O)CC(=O)NC(C)C(=O)NC(CC(C)C)C(O)CC(=O)O)C(C)C)C(C)C (stereo not drawn)
inactive: OVCAR-5 > 100 µM | U-251 > 100 µM | HCT-116 > 100 µM | CAKI-1 > 100 µM | 786-0 > 100 µM | SN12C > 100 µM | OVCAR-3 > 100 µM | IGROV-1 > 100 µM | ACHN > 100 µM | RPMI-8226 > 100 µM | SK-MEL-28 > 100 µM | MDA-N > 100 µM | HOP-62 > 100 µM | LOX IMVI > 100 µM | K562 > 100 µM | CCRF-CEM > 100 µM | HOP-92 > 100 µM | SF-539 > 100 µM

CC(C)CC(NC(=O)OC(C)(C)C)C(=O)N1CCCC1C(=O)OCc1ccccc1 (stereo not drawn) (Boc-Leu-Pro-OBn; configuration not given here)
inactive: OVCAR-5 > 100 µM | U-251 > 100 µM | HCT-116 > 100 µM | CAKI-1 > 100 µM | 786-0 > 100 µM | SN12C > 100 µM | OVCAR-3 > 100 µM | IGROV-1 > 100 µM | ACHN > 100 µM | SK-MEL-28 76.7 µM | MDA-N > 100 µM | LOX IMVI 40.4 µM | K562 35.2 µM | HOP-92 > 100 µM | SF-539 > 100 µM

Cc1ccc(NC(=O)CCc2cc(C(C)(C)C)nc(S)n2)cc1C
inactive: OVCAR-5 > 100 µM | U-251 > 100 µM | HCT-116 > 100 µM | CAKI-1 > 100 µM | 786-0 > 100 µM | HL-60 > 100 µM | SN12C > 100 µM | OVCAR-3 > 100 µM | IGROV-1 > 100 µM | ACHN > 100 µM | RPMI-8226 > 100 µM | SK-MEL-28 > 100 µM | HOP-62 > 100 µM | LOX IMVI > 100 µM | K562 > 100 µM | CCRF-CEM > 100 µM | HOP-92 > 100 µM | SF-539 > 100 µM

O=C(/C=C1/Nc2ccc([N+](=O)[O-])cc2N/C1=C/C(=O)c1ccccc1)c1ccccc1
inactive: OVCAR-5 > 100 µM | U-251 13.5 µM | HCT-116 20.7 µM | CAKI-1 26.7 µM | 786-0 18.3 µM | SN12C 40.8 µM | OVCAR-3 16.7 µM | IGROV-1 25.3 µM | ACHN 39.8 µM | MDA-N > 100 µM | HOP-62 12.1 µM | K562 32.8 µM | CCRF-CEM 10.6 µM | SF-539 8.2 µM

CCC(C)(O)c1cn(-c2ccc(S(=O)(=O)O)cc2)nn1 (stereo not drawn)
inactive: OVCAR-5 > 100 µM | U-251 > 100 µM | HCT-116 > 100 µM | CAKI-1 > 100 µM | 786-0 > 100 µM | HL-60 > 100 µM | SN12C > 100 µM | OVCAR-3 > 100 µM | IGROV-1 > 100 µM | ACHN > 100 µM | RPMI-8226 > 100 µM | SK-MEL-28 > 100 µM | HOP-62 > 100 µM | LOX IMVI > 100 µM | K562 > 100 µM | CCRF-CEM > 100 µM | HOP-92 > 100 µM | SF-539 > 100 µM
